Article PMC4308083, “Cytokine-Induced Loss of Glucocorticoid Function: Effect of Kinase Inhibitors, Long-Acting β2-Adrenoceptor Agonist and Glucocorticoid Receptor Ligands” (PLoS ONE, 2015)
Read-outs that look alike come from different tables or passages of the source.

Experiments:
[1] = molecular target: T1, glucocorticoid receptor (NR3C1) (Homo sapiens, UniProt P04150); assay: 2×GRE luciferase reporter activation by NR3C1 ligands in BEAS-2B cells; format: cell-based; settings: for EC50: pEC50 (M)
T1 construct: BEAS-2B cells stably transfected with a glucocorticoid response element (2×GRE) driven luciferase reporter plasmid; endogenous in cells; host or cells: BEAS-2B human bronchial epithelial cells stably carrying a 2×GRE luciferase reporter
T1 sequence (P04150 1-777): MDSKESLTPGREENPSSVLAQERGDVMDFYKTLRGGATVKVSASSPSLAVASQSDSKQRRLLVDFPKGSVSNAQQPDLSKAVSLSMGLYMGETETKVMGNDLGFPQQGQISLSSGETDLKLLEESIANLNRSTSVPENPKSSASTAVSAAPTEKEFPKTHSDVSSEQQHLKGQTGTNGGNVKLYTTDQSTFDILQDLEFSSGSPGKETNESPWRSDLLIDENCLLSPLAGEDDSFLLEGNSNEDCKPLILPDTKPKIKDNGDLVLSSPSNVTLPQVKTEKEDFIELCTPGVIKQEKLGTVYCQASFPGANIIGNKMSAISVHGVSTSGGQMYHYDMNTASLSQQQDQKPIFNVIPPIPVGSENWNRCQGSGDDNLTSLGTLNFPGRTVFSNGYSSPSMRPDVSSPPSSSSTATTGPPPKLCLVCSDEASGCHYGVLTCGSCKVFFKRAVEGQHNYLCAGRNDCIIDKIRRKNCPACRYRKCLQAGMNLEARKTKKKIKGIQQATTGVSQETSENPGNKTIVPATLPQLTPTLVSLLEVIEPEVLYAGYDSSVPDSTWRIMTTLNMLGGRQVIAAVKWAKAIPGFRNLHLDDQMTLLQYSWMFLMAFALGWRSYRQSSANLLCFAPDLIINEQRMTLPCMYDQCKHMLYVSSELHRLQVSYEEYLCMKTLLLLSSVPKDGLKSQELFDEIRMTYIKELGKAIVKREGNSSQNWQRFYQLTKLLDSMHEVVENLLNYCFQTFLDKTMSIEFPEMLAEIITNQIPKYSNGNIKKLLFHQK
Experimental: (§1) BEAS-2B cells stably transfected with a glucocorticoid response element (2×GRE) driven luciferase reporter plasmid, pGL3.neo.TATA.neo [23], were cultured in medium containing 0.25 mg/ml G-418 (Promega, Madison, WI). Cells were grown to confluence in 24 or 48 well plates and incubated overnight in serum-free media prior to experiments. Cells were harvested in reporter lysis buffer and luciferase assays performed according to the manufacturer’s instructions (Firefly Luciferase Assay Kit; Biotium; Hayward, CA) using a 20/20n luminometer (Promega).
Cells were harvested 6 h after NR3C1 ligand addition for luciferase assay.
(§2) Cells were harvested after 6 h for luciferase assays. Data (n = 7), expressed as fold activation, are plotted as means ± S.E. Lines of best fit were added in panel B. Statistical analyses were performed by ANOVA with a Dunnett’s test comparing each NR3C1 ligand alone versus in the presence of TNF and/or Form. *, P<0.05; **, P<0.01; ***, P<0.001.

[2] = test system: CDKN1C, DUSP1, RGS2 and TSC22D3 mRNA in BEAS-2B cells; assay: RT-PCR of glucocorticoid-inducible gene expression in BEAS-2B cells
Experimental: Cells were harvested 6 h after Dex addition.
BEAS-2B cells were pre-treated for 30 min with either 10 or 3 μM of the JNK MAPK inhibitor JNK inhibitor VIII (JNK) or 10 μM of the IKK2 inhibitor PS-1145 (PS), before addition of 10 ng/ml tumor necrosis factor-α (TNF).
Cells were harvested 6 h after NR3C1 ligand addition.

2×GRE reporter = assay: Modulation of dexamethasone/NR3C1 ligand-induced 2×GRE reporter activation (kinase inhibitors, TNF, formoterol) in BEAS-2B cells; format: cell-based, human; settings: 30 min pre-treatment, dexamethasone, 6 h (Fig. 3B, Fig. 4); JNK inhibitor VIII only at 30 μM; PKC inhibitors above 1 μM
Experimental: as §1
Data (n = 7), expressed as a percentage of Dex activation, are plotted as means ± S.E. BEAS-2B 2×GRE cells were pre-treated for 30 min with the indicated concentrations of B. PS or JNK or C. JNK in the presence or absence of 10 μM PS, before addition of 10 ng/ml TNF. After 1 h, 10 μM Dex was added and cells harvested 6 h later for luciferase assay. […] D+T indicates Dex plus TNF treatment.
Data (n = 3–4), expressed as fold activation, are plotted as means ± S.E. D+T indicates Dex plus TNF treatment.
as §2

AKT1 phosphorylation = assay: Western blot of AKT1 phosphorylation in BEAS-2B cells; format: cell-based; settings: Homo sapiens, 30 min pre-treatment, TNF 10 ng/ml 30 min, western blot (S2 Fig.), read-out: EC50 for block of AKT1 phosphorylation
Text: Cells were lysed in 1× Laemmli buffer supplemented with phosphatase inhibitors (Sigma-Aldrich) and 1× complete protease inhibitor cocktail (Roche; Indianapolis, IN), size fractionated on 12% acrylamide gels and subsequently electro-transferred onto Hybond enhanced chemiluminescent membranes (GE Healthcare; Waukesha, WI). Membranes were blocked in 5% milk in tris-buffered saline containing 1% tween 20 and probed with antibodies against phospho-jun proto-oncogene (pJUN; pc-Jun) (9164; Cell Signaling Technology; Danvers, MA), nuclear factor of kappa light polypeptide gene enhancer in B-cells inhibitor, alpha (NFKBIA; IκBα) (sc-371; Santa Cruz Biotechnology; Dallas, TX), phospho-NFKBIA (9246; Cell Signaling Technology), phospho-AKT1 (9271S; Cell Signaling Technology), AKT (9272S; Cell Signaling Technology) and GAPDH (4699–9555(ST); AbD Serotec; Raleigh, NC). After washing, membranes were incubated with horseradish peroxidase-conjugated anti-rabbit (111–035–003; Jackson ImmunoResearch Laboratories Inc; West Grove, PA) or anti-mouse immunoglobulin (115–035–003; Jackson ImmunoResearch Laboratories Inc). Detection was by enhanced chemiluminescence (Pierce ECL Western Blotting Substrate; Thermo Fisher Scientific Inc.; Rockford, IL) and visualization by autoradiography.
Cells were harvested after 30 min for western blotting and probed for phospho v-akt murine thymoma viral oncogene homolog 1 (pAKT1), AKT1 and glyceraldehyde 3-phosphate dehydrogenase (GAPDH). (PDF) Click here for additional data file.

[3] = 100 nM ligand, 10 nM formoterol, 6 h (Fig. 8)
[4] = BEAS-2B 2×GRE reporter, TNF 10 ng/ml pre-treatment 1 h, 6 h, percent of 1 μM dexamethasone
[5] = BEAS-2B 2×GRE reporter, no TNF, 6 h, percent of 1 μM dexamethasone

How did the “E max (% Dex), Naive” value [1] turn out when `CCCC1O[C@@H]2C[C@H]3[C@@H]4CCC5=CC(=O)C=C[C@]5(C)[C@H]4[C@@H](O)C[C@]3(C)[C@]2(C(=O)CO)O1` (some centres unmarked) [Budesonide] was run?
The value was 109.9 ± 2.6 % Dex.

What does the source list for `C[C@]12C=CC(=O)C=C1CC[C@@H]1[C@@H]2[C@@H](O)C[C@@]2(C)[C@H]1C[C@H]1O[C@@H](C3CCCCC3)O[C@]12C(=O)CO` [Des-ciclesonide]?
RGS2 mRNA expression in the presence of formoterol relative to dexamethasone [2, 3]: significantly lower; TSC22D3 mRNA fold induction ([2]; 6 h, 1 μM dexamethasone, 100 nM other ligands (Fig. 8, n = 5)): 71 fold; Agonist type on 2×GRE reporter relative to dexamethasone ([1]; BEAS-2B 2×GRE reporter): partial agonists; E max (% Dex), +TNF [1, 4]: 43.1 ± 1.0 % Dex; E max (% Dex), Naive [1, 5]: 76.0 ± 2.0 % Dex; EC50 ([1]; +TNF, BEAS-2B 2×GRE reporter, TNF 10 ng/ml pre-treatment 1 h, 6 h): 3.16e-09 M; EC50 ([1]; Naive, BEAS-2B 2×GRE reporter, no TNF, 6 h): 2.51e-09 M

For `C[C@@H]1C[C@H]2[C@@H]3CCC4=CC(=O)C=C[C@]4(C)[C@@]3(F)[C@@H](O)C[C@]2(C)[C@@]1(O)C(=O)CO` [Dexamethasone], which “E max (% Dex), +TNF” value [1, 4] is on record?
The value was 58.7 ± 3.2 % Dex.

And the “E max (% Dex), Naive” value [1, 5]?
Its value is 100 ± 3.2 % Dex.

`CCC(=O)O[C@]1(C(=O)SCF)[C@H](C)C[C@H]2[C@@H]3C[C@H](F)C4=CC(=O)C=C[C@]4(C)[C@@]3(F)[C@@H](O)C[C@@]21C` [Fluticasone Propionate] was tested. Which “E max (% Dex), +TNF” value [1, 4] did it give?
Its value is 51.0 ± 2.8 % Dex.

What about the “E max (% Dex), Naive” value [1, 5] of the same compound?
The value was 111.2 ± 4.3 % Dex.

`CN(C)CCCn1cc(C2=C(c3c[nH]c4ccccc34)C(=O)NC2=O)c2ccccc21` [GF109203X] was tested. Which “Effect on dexamethasone-induced 2×GRE reporter activation (concentration-response)” value (“Effect” below) (2×GRE reporter) did it give?
Its value is “enhanced”.

What does the source list for `C[C@@H]1C[C@H]2[C@@H]3C[C@H](F)C4=CC(=O)C=C[C@]4(C)[C@@]3(F)[C@@H](O)C[C@]2(C)[C@@]1(OC(=O)C1C(C)(C)C1(C)C)C(=O)OCC#N` [GW870086X]?
RGS2 mRNA expression in the presence of formoterol relative to dexamethasone [2, 3]: significantly lower; TSC22D3 mRNA expression in the presence of formoterol, or TNF plus formoterol, relative to dexamethasone [2, 3]: significantly lower; Agonist type on 2×GRE reporter relative to dexamethasone ([1]; BEAS-2B 2×GRE reporter): partial agonists; pEC50 (M), +TNF ([1]; BEAS-2B 2×GRE reporter, TNF 10 ng/ml pre-treatment 1 h, 6 h): 8.0 ± 0.2 * M; E max (% Dex), +TNF [1, 4]: 29.8 ± 1.4 % Dex; pEC50 (M), Naive ([1]; BEAS-2B 2×GRE reporter, no TNF, 6 h): 8.3 ± 0.1 M; E max (% Dex), Naive [1, 5]: 50.1 ± 1.1 % Dex

How did the “Effect” value (2×GRE reporter) turn out when `Cn1c2ccccc2c2c3c(c4c5ccccc5n(CCC#N)c4c21)CNC3=O` [Gö6976] was run?
The value was “reduced”.

`O=c1cc(N2CCOCC2)oc2c(-c3ccccc3)cccc12` [LY294002, 2-(4-morpholinyl)-8-phenyl-4H-1-benzopyran-4-one] was tested. Which EC50 (AKT1 phosphorylation) did it give?
Its EC50 is ~900 nM.

And the “Effect” value (2×GRE reporter)?
Its value is “less effect”.
